Read-outs that look alike come from different tables or passages of the source. One block for each compound: values may come before it.
Target: T1, human CTPS1 (Homo sapiens, UniProt P17812)
T1 construct: FLAG (with GG linker); His8 (with GG linker); purchased Proteros biostructures GmbH
T1 sequence (P17812 1-591): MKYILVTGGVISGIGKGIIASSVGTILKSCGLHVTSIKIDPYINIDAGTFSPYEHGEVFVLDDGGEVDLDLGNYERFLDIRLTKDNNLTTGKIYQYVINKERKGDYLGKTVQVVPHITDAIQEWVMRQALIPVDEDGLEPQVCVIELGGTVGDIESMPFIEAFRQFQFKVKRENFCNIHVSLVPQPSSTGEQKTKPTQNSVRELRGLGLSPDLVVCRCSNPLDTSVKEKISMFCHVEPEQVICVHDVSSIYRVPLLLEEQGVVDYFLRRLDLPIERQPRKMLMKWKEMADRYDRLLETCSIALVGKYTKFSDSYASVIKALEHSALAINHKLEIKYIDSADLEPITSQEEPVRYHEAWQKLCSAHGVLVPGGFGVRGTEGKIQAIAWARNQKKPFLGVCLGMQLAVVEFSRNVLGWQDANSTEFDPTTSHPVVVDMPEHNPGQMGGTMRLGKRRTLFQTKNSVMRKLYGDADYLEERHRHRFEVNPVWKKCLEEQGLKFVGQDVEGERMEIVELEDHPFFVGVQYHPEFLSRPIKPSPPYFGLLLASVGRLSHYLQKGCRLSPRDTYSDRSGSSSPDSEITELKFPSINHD
Experiment: Human CTPS1 enzyme inhibition, ADP-Glo Max assay
Type: biochemical
In short: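 Read-out is ADP-Glo Max luminescence: residual ATP depleted (60 min), then produced ADP converted back to ATP for luciferase detection (60 min). Beforehand, protein and compound were mixed for 10 min at 25 °C in Tris buffer pH 8.0 with MgCl2, Tween-20 and 2 mM L-cysteine. Results expressed as percentage inhibition per concentration.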

[1] = ADP-Glo Max assay, Table 10, read-out: Human CTPS1 Enzyme Inhibition, IC50 grouped by potency range (CTPS1)
[2] = Table 12, ADP-Glo Max assay, read-out: CTPS1 (Human CTPS1 Enzyme Inhibition data grouped by potency range)

SMILES: CCOc1cncc(-c2ccc(NC(=O)C3(c4ccnc(NS(=O)(=O)CC)n4)CCN(C(=O)COC)CC3)nc2)n1 [P296]
IC50 [2]: < 100 nM

SMILES: CN(C(=O)C(C)(C)c1csc(NS(=O)(=O)C2CC2)n1)c1ccc(-c2cncc(Cl)c2)cc1 [T318, N-(4-(5-chloropyridin-3-yl)phenyl)-2-(2-(cyclopropanesulfonamido)thiazol-4-yl)-N,2-dimethylpropanamide]
IC50 [1]: 1000 to 10000 nM

SMILES: Cc1sc(NS(=O)(=O)C2CC2)nc1C(C)(C)C(=O)Nc1ccc(-c2cccnc2)cc1 [T319, 2-(2-(cyclopropanesulfonamido)-5-methylthiazol-4-yl)-2-methyl-N-(4-(pyridin-3-yl)phenyl)propanamide]
IC50 [1]: 1000 to 10000 nM

SMILES: CC(C)(C(=O)Nc1ccc(-c2cccc(N3CCOCC3)c2)cn1)c1csc(NS(=O)(=O)C2CC2)n1 [T238, 2-(2-(cyclopropanesulfonamido)thiazol-4-yl)-2-methyl-N-(5-(3-morpholinophenyl)pyridin-2-yl)propanamide]
IC50 [1]: 1000 to 10000 nM

SMILES: CC(C)(C(=O)Nc1ncc(-c2cccnc2)cn1)c1csc(NS(=O)(=O)C2CC2)n1 [T37, 2-(2-(cyclopropanesulfonamido)thiazol-4-yl)-2-methyl-N-(5-(pyridin-3-yl)pyrimidin-2-yl)propanamide]
IC50 [1]: 100 to 1000 nM

SMILES: CCOc1cncc(-c2ccc(NC(=O)C3(c4ccnc(NS(=O)(=O)C5CC5)n4)CCN(C(=O)COC)CC3)nc2)n1 [P288]
IC50 [2]: < 100 nM

SMILES: Cc1cc(-c2cncc(C#N)n2)ccc1NC(=O)C(C)(C)c1csc(NS(=O)(=O)C2CC2)n1 [T465, N-(4-(6-cyanopyrazin-2-yl)-2-methylphenyl)-2-(2-(cyclopropanesulfonamido)thiazol-4-yl)-2-methylpropanamide]
IC50 [1]: 1000 to 10000 nM

SMILES: CN(C(=O)Cc1csc(NS(=O)(=O)C2CC2)n1)c1ccc(-c2cccnc2)cc1 [T26, 2-(2-(cyclopropanesulfonamido)thiazol-4-yl)-N-methyl-N-(4-(pyridin-3-yl)phenyl)acetamide]
IC50 [1]: 100 to 1000 nM

SMILES: CC(C)(C(=O)Nc1ccc(-c2cncc(OCC(F)(F)F)c2)cn1)c1csc(NS(=O)(=O)C2CC2)n1 [T114, 2-(2-(cyclopropanesulfonamido)thiazol-4-yl)-2-methyl-N-(5′-(2,2,2-trifluoroethoxy)-[3,3′-bipyridin]-6-yl)propanamide]
IC50 [1]: 100 to 1000 nM

SMILES: CCOc1cncc(-c2ccc(NC(=O)C(C)(C)c3csc(NS(=O)(=O)CC(C)C)n3)nc2)n1 [T295, N-(5-(6-ethoxypyrazin-2-yl)pyridin-2-yl)-2-methyl-2-(2-((2-methylpropyl)sulfonamido)thiazol-4-yl)propanamide]
IC50 [1]: 100 to 1000 nM

SMILES: Cc1ccc(-c2ccc(NC(=O)C(C)(C)c3csc(NS(=O)(=O)C4CC4)n3)cc2)cn1 [T105, 2-(2-(cyclopropanesulfonamido)thiazol-4-yl)-2-methyl-N-(4-(6-methylpyridin-3-yl)phenyl)propanamide]
IC50 [1]: 1000 to 10000 nM

SMILES: CCOC(=O)CN1CCC(C(=O)Nc2ccc(-c3cncc(OCC)n3)cn2)(c2nccc(NS(=O)(=O)C3CC3)n2)CC1 [P295]
IC50 [2]: < 100 nM

SMILES: CC(C)(C(=O)Nc1ccc(-c2ccccc2)cn1)c1csc(NS(=O)(=O)C2CC2)n1 [T63, 2-(2-(cyclopropanesulfonamido)thiazol-4-yl)-2-methyl-N-(5-phenylpyridin-2-yl)propanamide]
IC50 [1]: 100 to 1000 nM

SMILES: CN(C(=O)C(C)(C)c1csc(NS(=O)(=O)C2CC2)n1)c1ccc(-c2cncc(C(F)(F)F)n2)cc1 [T310, 2-(2-(cyclopropanesulfonamido)thiazol-4-yl)-N,2-dimethyl-N-(4-(6-(trifluoromethyl)pyrazin-2-yl)phenyl)propanamide]
IC50 [1]: 1000 to 10000 nM

SMILES: CCOc1cncc(-c2ccc(NC(=O)C3(c4ccnc(NS(=O)(=O)C5CC5)n4)CCC(N4CCN(C)CC4)CC3)nc2)n1 (stereo not drawn) [P311]
IC50 [2]: 100 to 1000 nM

Results, then the compound that gave them:

IC50 [1]: < 100 nM
SMILES: CC(C)(C(=O)Nc1ccc(-c2cncc(OC3CC3)n2)cn1)c1csc(NS(=O)(=O)C2CC2)n1 [T142, 2-(2-(cyclopropanesulfonamido)thiazol-4-yl)-N-(5-(6-cyclopropoxypyrazin-2-yl)pyridin-2-yl)-2-methylpropanamide]

IC50 [1]: < 100 nM
SMILES: CCC(CC)(C(=O)Nc1ccc(-c2cccnc2)cc1)c1csc(NS(=O)(=O)C2CC2)n1 [T92, 2-(2-(cyclopropanesulfonamido)thiazol-4-yl)-2-ethyl-N-(4-(pyridin-3-yl)phenyl)butanamide]

IC50 [1]: 100 to 1000 nM
SMILES: CC(C)(C(=O)Nc1ccc(-c2cccnc2)c(C#N)c1)c1csc(NS(=O)(=O)C2CC2)n1 [T152, N-(3-cyano-4-(pyridin-3-yl)phenyl)-2-(2-(cyclopropanesulfonamido)thiazol-4-yl)-2-methylpropanamide]

IC50 [1]: < 100 nM
SMILES: CCC(CC)(C(=O)Nc1ccc(-c2cnccn2)cc1)c1csc(NS(=O)(=O)C2CC2)n1 [T122, 2-(2-(cyclopropanesulfonamido)thiazol-4-yl)-2-ethyl-N-(4-(pyrazin-2-yl)phenyl)butanamide]

IC50 [1]: 100 to 1000 nM
SMILES: CC(C)(C(=O)Nc1ccc(-c2cncc(CO)n2)cc1)c1csc(NS(=O)(=O)C2CC2)n1 [T283, 2-(2-(cyclopropanesulfonamido)thiazol-4-yl)-N-(4-(6-(hydroxymethyl)pyrazin-2-yl)phenyl)-2-methylpropanamide]

IC50 [1]: < 100 nM
SMILES: CCOc1cncc(-c2ccc(NC(=O)C(C)(C)c3csc(NS(=O)(=O)C4CC4)n3)c(F)c2)c1 [T125, 2-(2-(cyclopropanesulfonamido)thiazol-4-yl)-N-(4-(5-ethoxypyridin-3-yl)-2-fluorophenyl)-2-methylpropanamide]

IC50 [1]: < 100 nM
SMILES: COc1cc(-c2cncc(C(F)(F)F)c2)ccc1NC(=O)C(C)(C)c1csc(NS(=O)(=O)C2CC2)n1 [T259, 2-(2-(cyclopropanesulfonamido)thiazol-4-yl)-N-(2-methoxy-4-(5-(trifluoromethyl)pyridin-3-yl)phenyl)-2-methylpropanamide]

IC50 [1]: 100 to 1000 nM
SMILES: CC(C)(C(=O)Nc1ccc(-c2cncnc2)nc1)c1csc(NS(=O)(=O)C2CC2)n1 [T117, 2-(2-(cyclopropanesulfonamido)thiazol-4-yl)-2-methyl-N-(6-(pyrimidin-5-yl)pyridin-3-yl)propanamide]

IC50 [1]: 100 to 1000 nM
SMILES: CCOc1cncc(-c2ccc(NC(=O)C(C)(C)c3csc(NS(=O)(=O)C(C)(C)C)n3)cc2)n1 [T304, 2-(2-((1,1-dimethylethyl)sulfonamido)thiazol-4-yl)-N-(4-(6-ethoxypyrazin-2-yl)phenyl)-2-methylpropanamide]

IC50 [1]: 100 to 1000 nM
SMILES: COc1cccc(-c2ccc(NC(=O)C(C)(C)c3csc(NS(=O)(=O)C4CC4)n3)cc2)c1 [T28, 2-(2-(cyclopropanesulfonamido)thiazol-4-yl)-N-(3′-methoxy-[1,1′-biphenyl]-4-yl)-2-methylpropanamide]

IC50 [1]: < 100 nM
SMILES: CC(C)(C(=O)Nc1ccc(-c2cncc(C(F)(F)F)n2)cn1)c1csc(NS(C)(=O)=O)n1 [T425, 2-methyl-2-(2-(methylsulfonamido)thiazol-4-yl)-N-(5-(6-(trifluoromethyl)pyrazin-2-yl)pyridin-2-yl)propanamide]

IC50 [1]: < 100 nM
SMILES: COc1cncc(-c2ccc(NC(=O)C(C)(C)c3csc(NS(=O)(=O)C4CC4)n3)c(OC)c2)c1 [T50, 2-(2-(cyclopropanesulfonamido)thiazol-4-yl)-N-(2-methoxy-4-(5-methoxypyridin-3-yl)phenyl)-2-methylpropanamide]

IC50 [1]: < 100 nM
SMILES: CCOc1cncc(-c2ccc(NC(=O)C(C)(C)c3csc(NS(=O)(=O)C4CC4)n3)c(C)c2)n1 [T137, 2-(2-(cyclopropanesulfonamido)thiazol-4-yl)-N-(4-(6-ethoxypyrazin-2-yl)-2-methylphenyl)-2-methylpropanamide]

IC50 [1]: 100 to 1000 nM
SMILES: COc1cc(NC(=O)C(C)(C)c2csc(NS(=O)(=O)C3CC3)n2)ccc1-c1cnccn1 [T43, 2-(2-(cyclopropanesulfonamido)thiazol-4-yl)-N-(3-methoxy-4-(pyrazin-2-yl)phenyl)-2-methylpropanamide]

IC50 [1]: < 100 nM
SMILES: COc1cncc(-c2ccc(NC(=O)C(C)(C)c3csc(NS(=O)(=O)C4CC4)n3)cc2)n1 [T265, 2-(2-(cyclopropanesulfonamido)thiazol-4-yl)-N-(4-(6-methoxypyrazin-2-yl)phenyl)-2-methylpropanamide]

IC50 [1]: < 100 nM
SMILES: CC(C)(C(=O)Nc1ccc(-c2cncc(OCC(F)(F)F)n2)cc1)c1csc(NS(=O)(=O)C2CC2)n1 [T127, 2-(2-(cyclopropanesulfonamido)thiazol-4-yl)-2-methyl-N-(4-(6-(2,2,2-trifluoroethoxy)pyrazin-2-yl)phenyl)propanamide]

IC50 [1]: < 100 nM
SMILES: CCOc1cncc(-c2ccc(NC(=O)C(C)(C)c3csc(NS(=O)(=O)C4CC4)n3)cc2)c1 [T290, 2-(2-(cyclopropanesulfonamido)thiazol-4-yl)-N-(4-(5-ethoxypyridin-3-yl)phenyl)-2-methylpropanamide]

IC50 [1]: < 100 nM
SMILES: O=C(Cc1csc(NS(=O)(=O)C2CC2)n1)Nc1ccc(-c2cnccn2)cc1 [T82, 2-(2-(cyclopropanesulfonamido)thiazol-4-yl)-N-(4-(pyrazin-2-yl)phenyl)acetamide]
